Reference: article PMC7780120, “Modulators of histone demethylase JMJD1C selectively target leukemic stem cells” (FEBS Open Bio, 2020)

Molecular target: T1, JMJD1C (partial, 2274-2498aa) (Homo sapiens, UniProt Q15652)
T1 construct: immobilised on CM7 chip
T1 sequence (Q15652 2274-2498): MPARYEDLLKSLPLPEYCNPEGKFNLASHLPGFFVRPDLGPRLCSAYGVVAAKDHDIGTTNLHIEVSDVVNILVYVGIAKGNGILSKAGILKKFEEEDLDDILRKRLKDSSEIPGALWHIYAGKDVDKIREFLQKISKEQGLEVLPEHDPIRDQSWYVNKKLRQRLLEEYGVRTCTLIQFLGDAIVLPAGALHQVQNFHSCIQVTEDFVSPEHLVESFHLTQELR
Experiment: SPR, immobilised protein, […] Langmuir fit
Type: binding

Kd: 256 µM
SMILES: CN1CC(=O)N2[C@H](c3ccc4c(c3)OCO4)c3[nH]c4ccccc4c3C[C@@H]2C1=O [tadalafil]
